Data reported in US8598225B2, “Use of L-butylphthalide in the manufacture of medicaments for treatment of cerebral infarct” (CSPC Zhongqi Pharmaceutical Technology (Shijiazhuang) Co., …, priority 2003, dated 2013).
Entries after “also recorded” stand apart in the source; their conditions may differ.

Assays:
[1] = tested on: transient focal cerebral ischemic model (tMCAO); assay: Cerebral infarct volume of tMCAO rats (2 h middle cerebral artery occlusion, 24 h reperfusion, TTC staining); format: in vivo, rat; conditions: 15 min after ischemia; for reduction of infarct volume vs. vehicle group: tMCAO rats, p<0.001; for effect on infarct volume (in words): oral, l-NBP and d-NBP 20 and 40 mg/kg, dl-NBP 40 and 80 mg/kg, vs. vehicle
[2] = tested on: transient focal cerebral ischemic model (tMCAO); assay: Neurological behavioral evaluation of tMCAO rats (score 0-4); conditions: for mean neurological score: 15 min after ischemia, scored at 24 h, vehicle 2.6±0.3; for improvement of neurological symptoms (in words): oral, d-NBP 20 and 40 mg/kg, dl-NBP 40 and 80 mg/kg, vs. vehicle
Method: Male Wistar rats weighed 280-320 g were used, with each 5 rats kept in one cage. Animals were allowed free access to food and water at room temperature controlled at 23° C. The rats were anesthetized with 40 mg/kg of sodium pentobarbital. Under the surgical microscope, a midline neck skin incision was make to expose the right common cartotid artery, and the internal carotid artery (ICA) and external carotid artery (ECA) were then separated free from surrounding nerves and fascia, and the anastomotic branch was ligated. The ECA were ligated and cut, pulled to be straight and in line with ICA. A nylon suture with rounded tip and the diameter of 0.28 mm (coated with poly-L-lysine) was introduced from ECA into the lumen of the ICA for about 20 mm, advancing endocranially to the starting point of middle cerebral artery.
After 2 h of ischemia, the nylon suture was carefully withdrawn, and the ECA was ligated at the site of opening. The rats were then sutured and placed back into the cage, and allowed to reperfuse for 24 h. Room temperature throughout the operation was kept at 24-25° C. The rats were placed on the heating plate of 37° C. to maintain the body temperature throughout the operation. The administration was performed 15 minutes after ischemia.
Rats were divided into eight groups with 10 rats in each group. Group 1 was vehicle control with 1 ml/kg of vegetable oil; groups 2) and 3) were 40 and 80 mg/kg of dl-NBP; groups 4) and 5) were 20 and 40 mg/kg of d-NBP; groups 6) and 7) were 20 and 40 mg/kg of l-NBP; and group 8 was 0.1 mg/kg of MK801. Animals in groups 1-7 were orally administered, and animals in group 8 were intraperitoneally administered.
Neurological behavioral observation was conducted after 24 h of ischemia. Rats were lifted up by tail 1 inch away from the ground, and the conditions of both forelimbs were observed; both shoulders were pushed to observe if there was any difference between the resistances by both sides; the rats were placed down to the ground and their walking conditions were observed. Scores were given in accordance with the following criteria. • 0: strong forelimbs, symmetrically stretching towards the ground; identical resistance of both shoulders, and normal walk. • 1: contralateral shoulder flexion, forelimb flexion; identical resistance of both shoulders, and normal walk. • 2: contralateral shoulder flexion, forelimb flexion; decreased resistance of contralateral shoulder to push; and normal walk. • 3: contralateral shoulder flexion, forelimb flexion; decreased resistance of contralateral shoulder to push; and circling when walking • 4: contralateral shoulder flexion, forelimb flexion; and unable to autonomously move. The higher the score is, the more severe the behavioral disorder of the animal is.
The results were expressed as mean±standard error. Neurological behavioral score and cerebral infarct volume were statistically analyzed using one-way ANOVA and the difference between groups using posthoc LSD test. Result was considered to show a significant difference when p<0.05.

[3] = tested on: acute ischemic cerebral stroke; conditions: administration group; 192 cases multi centered, random, double blinded, placebo control (placebo 41.0%); cited from earlier work
micro-circulation = conditions: previous studies; cited from earlier work

SMILES	reduction of infarct volume vs. vehicle group ([1]; 0.1 mg/kg intraperitoneal) [%]	mean neurological score ([2]; 0.1 mg/kg intraperitoneal, p<0.001)	adverse behavioral signs in treated animals ([2]; 0.1 mg/kg intraperitoneal, tMCAO rats)	effect on infarct volume (in words) [1]	total effective rate [3] [%]	improvement of neurological symptoms (in words) [2]	reduction of infarct volume vs. vehicle group ([1]; 40 mg/kg oral, 24 h reperfusion) [%]	cerebral protective and micro-circulation improving effect (in words) (micro-circulation)	mean neurological score ([2]; 20 mg/kg oral, p<0.01)	mean neurological score ([2]; 40 mg/kg oral, p<0.001)
C[C@]12N[C@H](Cc3ccccc31)c1ccccc12 [MK801]	81.8	0.8	the limbs were weak, and staggered when sprawling, ataxia occurred, and unilaterally circled							
CCCCC1OC(=O)c2ccccc21 (racemic) [dl-NBP, racemic butylphthalide]				no significant effect; also recorded: no reduction effect	70.7	no significant improvement				
CCCC[C@@H]1OC(=O)c2ccccc21 [l-NBP, L-n-butylphthalide]				significantly reduced dose-dependently; also recorded: very significantly and dose dependently reduced			80.4	also has cerebral protective effect and micro-circulation improving effect	1.4	1.1
CCCC[C@H]1OC(=O)c2ccccc21 [d-NBP, dextro-butylphthalide]				no significant effect		no significant improvement		no such effect		
